Results on one molecule are retold here after ChEMBL document CHEMBL4330132, “5-Keto-3-cyano-2,4-diaminothiophenes as selective maternal embryonic leucine zipper kinase inhibitors” (Bioorg Med Chem Lett, 2019).

Test [1] addresses Serine/threonine-protein kinase TAO3 (Homo sapiens) (UniProt Q9H2K8). Put plainly: Binding affinity to wild-type human partial length TAOK3 (M1 to T316 residues) expressed in mammalian expression system assessed as residual binding level at 1 uM by Kinomescan method relative to control.
Test [2] deals with Phosphatidylinositol 4,5-bisphosphate 3-kinase catalytic subunit alpha isoform (Homo sapiens), P42336 [E545K]. Put plainly: Binding affinity to human partial length PIK3CA E545K mutant (R108 to N1068 residues) expressed in mammalian expression system assessed as residual binding level at 1 uM by Kinomescan method relative to control.
Test [3] has as its target Cytoplasmic tyrosine-protein kinase BMX (Homo sapiens) (UniProt P51813). Put plainly: Binding affinity to wild-type human full length BMX (M1 to H675 residues) expressed in bacterial expression system assessed as residual binding level at 1 uM by Kinomescan method relative to control.
Test [4] has as its target Serine/threonine-protein kinase MRCK beta (Homo sapiens) (UniProt Q9Y5S2). Put plainly: Binding affinity to wild-type human partial length MRCKB (L56 to S417 residues) expressed in bacterial expression system assessed as residual binding level at 1 uM by Kinomescan method relative to control.
In test [5] the target is 5'-AMP-activated protein kinase catalytic subunit alpha-2 (Homo sapiens) (UniProt P54646). Put plainly: Binding affinity to wild-type human partial length AMPK alpha2 (M1 to E306 residues) expressed in bacterial expression system assessed as residual binding level at 1 uM by Kinomescan method relative to control.
5'-AMP-activated protein kinase catalytic subunit alpha-2 (Homo sapiens), sequence (P54646 whole entry, looked up, the tested form may be a part): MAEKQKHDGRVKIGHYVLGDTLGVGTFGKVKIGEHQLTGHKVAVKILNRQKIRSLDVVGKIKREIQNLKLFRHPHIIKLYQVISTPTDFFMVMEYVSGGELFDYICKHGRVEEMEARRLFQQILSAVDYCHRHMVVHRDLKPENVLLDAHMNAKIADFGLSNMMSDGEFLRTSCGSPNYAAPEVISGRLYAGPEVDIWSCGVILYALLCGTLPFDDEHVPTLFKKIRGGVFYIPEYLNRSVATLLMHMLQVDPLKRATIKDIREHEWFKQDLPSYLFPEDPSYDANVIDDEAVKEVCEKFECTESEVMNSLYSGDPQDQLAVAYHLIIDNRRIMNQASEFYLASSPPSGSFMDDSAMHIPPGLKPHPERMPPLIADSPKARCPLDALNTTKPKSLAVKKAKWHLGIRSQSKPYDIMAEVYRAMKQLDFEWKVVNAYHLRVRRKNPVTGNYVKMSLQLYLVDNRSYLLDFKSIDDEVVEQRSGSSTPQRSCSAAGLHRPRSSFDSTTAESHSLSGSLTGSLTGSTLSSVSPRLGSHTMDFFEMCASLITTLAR
Test [6] deals with NUAK family SNF1-like kinase 2 (Homo sapiens) (UniProt Q9H093). Put plainly: Binding affinity to wild-type human partial length SNARK (P22 to A333 residues) expressed in mammalian expression system assessed as residual binding level at 1 uM by Kinomescan method relative to control.
In test [7] the target is Myosin light chain kinase, smooth muscle (Homo sapiens) (UniProt Q15746). Put plainly: Binding affinity to wild-type human full length MYLK (M854 to E1845 residues) expressed in mammalian expression system assessed as residual binding level at 1 uM by Kinomescan method relative to control.
Myosin light chain kinase, smooth muscle (Homo sapiens), sequence (Q15746 whole entry, the tested form may be a part): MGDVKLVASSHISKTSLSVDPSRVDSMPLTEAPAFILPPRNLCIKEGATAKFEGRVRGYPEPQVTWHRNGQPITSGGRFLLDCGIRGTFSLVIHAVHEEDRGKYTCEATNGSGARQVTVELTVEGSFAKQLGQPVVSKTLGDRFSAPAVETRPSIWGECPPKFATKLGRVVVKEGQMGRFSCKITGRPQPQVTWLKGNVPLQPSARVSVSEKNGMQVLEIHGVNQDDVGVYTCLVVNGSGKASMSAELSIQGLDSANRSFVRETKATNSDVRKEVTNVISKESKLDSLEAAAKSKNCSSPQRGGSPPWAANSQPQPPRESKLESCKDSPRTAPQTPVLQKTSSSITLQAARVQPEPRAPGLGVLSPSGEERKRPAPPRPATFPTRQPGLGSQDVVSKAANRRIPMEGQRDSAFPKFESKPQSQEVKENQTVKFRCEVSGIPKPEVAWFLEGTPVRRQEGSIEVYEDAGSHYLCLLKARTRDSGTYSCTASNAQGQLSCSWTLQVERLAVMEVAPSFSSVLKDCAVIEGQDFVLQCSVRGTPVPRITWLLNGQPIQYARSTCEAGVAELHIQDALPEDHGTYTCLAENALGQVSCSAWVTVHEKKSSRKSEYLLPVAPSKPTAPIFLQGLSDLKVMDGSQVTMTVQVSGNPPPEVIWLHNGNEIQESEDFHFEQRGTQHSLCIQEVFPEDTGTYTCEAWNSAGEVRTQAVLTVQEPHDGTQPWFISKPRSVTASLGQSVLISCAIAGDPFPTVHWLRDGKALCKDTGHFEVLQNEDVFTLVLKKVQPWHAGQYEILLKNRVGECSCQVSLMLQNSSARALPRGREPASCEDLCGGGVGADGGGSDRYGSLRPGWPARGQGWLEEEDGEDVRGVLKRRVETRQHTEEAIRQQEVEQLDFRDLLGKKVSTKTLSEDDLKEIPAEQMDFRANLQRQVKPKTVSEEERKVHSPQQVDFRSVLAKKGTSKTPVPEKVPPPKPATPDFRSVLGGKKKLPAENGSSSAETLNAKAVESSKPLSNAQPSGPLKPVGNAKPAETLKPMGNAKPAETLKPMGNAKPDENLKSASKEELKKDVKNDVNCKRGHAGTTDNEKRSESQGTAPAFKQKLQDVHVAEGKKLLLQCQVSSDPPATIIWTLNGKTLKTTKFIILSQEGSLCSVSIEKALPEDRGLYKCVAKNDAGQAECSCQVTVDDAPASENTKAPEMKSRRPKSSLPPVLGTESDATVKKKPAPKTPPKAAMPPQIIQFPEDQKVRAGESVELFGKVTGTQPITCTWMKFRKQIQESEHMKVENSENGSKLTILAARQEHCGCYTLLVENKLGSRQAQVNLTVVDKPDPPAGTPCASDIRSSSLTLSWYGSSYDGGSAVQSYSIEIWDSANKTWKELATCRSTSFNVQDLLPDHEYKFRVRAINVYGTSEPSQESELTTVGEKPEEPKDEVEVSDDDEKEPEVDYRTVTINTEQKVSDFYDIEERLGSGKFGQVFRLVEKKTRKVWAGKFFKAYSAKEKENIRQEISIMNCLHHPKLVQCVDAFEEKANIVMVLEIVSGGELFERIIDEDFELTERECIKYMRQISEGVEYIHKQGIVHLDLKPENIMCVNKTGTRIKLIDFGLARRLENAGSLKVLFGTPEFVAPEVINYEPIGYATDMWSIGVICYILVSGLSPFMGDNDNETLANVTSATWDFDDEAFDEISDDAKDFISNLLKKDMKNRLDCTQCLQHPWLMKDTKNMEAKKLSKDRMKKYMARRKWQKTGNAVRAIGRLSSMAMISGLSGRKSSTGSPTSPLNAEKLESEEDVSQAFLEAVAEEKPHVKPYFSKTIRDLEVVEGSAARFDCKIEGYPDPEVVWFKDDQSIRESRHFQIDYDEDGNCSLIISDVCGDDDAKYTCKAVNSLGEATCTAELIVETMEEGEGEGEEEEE
The target in test [8] is Non-receptor tyrosine-protein kinase TNK1 (Homo sapiens) (UniProt Q13470). Put plainly: Binding affinity to wild-type human full length TNK1 (M1 to P661 residues) expressed in bacterial expression system assessed as residual binding level at 1 uM by Kinomescan method relative to control.

Molecules are shown by their SMILES.

Serine/threonine-protein kinase TAO3 (Homo sapiens), sequence (Q9H2K8 whole entry, the tested form may be a part, canonical isoform): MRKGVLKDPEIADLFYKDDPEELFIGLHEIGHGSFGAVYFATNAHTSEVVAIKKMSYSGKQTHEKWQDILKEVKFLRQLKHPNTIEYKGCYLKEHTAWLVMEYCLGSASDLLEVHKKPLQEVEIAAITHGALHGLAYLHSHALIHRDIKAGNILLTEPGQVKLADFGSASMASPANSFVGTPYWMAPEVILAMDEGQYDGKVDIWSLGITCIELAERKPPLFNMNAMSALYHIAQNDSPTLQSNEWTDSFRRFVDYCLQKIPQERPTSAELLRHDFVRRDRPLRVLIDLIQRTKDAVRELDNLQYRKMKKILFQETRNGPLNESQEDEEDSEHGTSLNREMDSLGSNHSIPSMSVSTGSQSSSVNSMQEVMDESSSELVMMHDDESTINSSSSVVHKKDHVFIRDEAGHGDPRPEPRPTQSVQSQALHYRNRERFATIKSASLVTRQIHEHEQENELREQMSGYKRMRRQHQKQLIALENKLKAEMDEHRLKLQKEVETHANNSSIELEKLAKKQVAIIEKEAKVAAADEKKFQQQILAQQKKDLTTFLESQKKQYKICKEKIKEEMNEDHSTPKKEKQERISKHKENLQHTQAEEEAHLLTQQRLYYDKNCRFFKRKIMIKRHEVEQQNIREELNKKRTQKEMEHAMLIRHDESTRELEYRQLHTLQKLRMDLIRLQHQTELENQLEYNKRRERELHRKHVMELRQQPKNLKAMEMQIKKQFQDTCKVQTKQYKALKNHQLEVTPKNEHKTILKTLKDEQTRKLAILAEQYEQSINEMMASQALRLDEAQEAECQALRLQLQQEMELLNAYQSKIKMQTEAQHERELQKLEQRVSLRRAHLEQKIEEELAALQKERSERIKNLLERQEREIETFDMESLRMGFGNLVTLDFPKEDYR
Serine/threonine-protein kinase MRCK beta (Homo sapiens), sequence (Q9Y5S2 whole entry, the tested form may be a part): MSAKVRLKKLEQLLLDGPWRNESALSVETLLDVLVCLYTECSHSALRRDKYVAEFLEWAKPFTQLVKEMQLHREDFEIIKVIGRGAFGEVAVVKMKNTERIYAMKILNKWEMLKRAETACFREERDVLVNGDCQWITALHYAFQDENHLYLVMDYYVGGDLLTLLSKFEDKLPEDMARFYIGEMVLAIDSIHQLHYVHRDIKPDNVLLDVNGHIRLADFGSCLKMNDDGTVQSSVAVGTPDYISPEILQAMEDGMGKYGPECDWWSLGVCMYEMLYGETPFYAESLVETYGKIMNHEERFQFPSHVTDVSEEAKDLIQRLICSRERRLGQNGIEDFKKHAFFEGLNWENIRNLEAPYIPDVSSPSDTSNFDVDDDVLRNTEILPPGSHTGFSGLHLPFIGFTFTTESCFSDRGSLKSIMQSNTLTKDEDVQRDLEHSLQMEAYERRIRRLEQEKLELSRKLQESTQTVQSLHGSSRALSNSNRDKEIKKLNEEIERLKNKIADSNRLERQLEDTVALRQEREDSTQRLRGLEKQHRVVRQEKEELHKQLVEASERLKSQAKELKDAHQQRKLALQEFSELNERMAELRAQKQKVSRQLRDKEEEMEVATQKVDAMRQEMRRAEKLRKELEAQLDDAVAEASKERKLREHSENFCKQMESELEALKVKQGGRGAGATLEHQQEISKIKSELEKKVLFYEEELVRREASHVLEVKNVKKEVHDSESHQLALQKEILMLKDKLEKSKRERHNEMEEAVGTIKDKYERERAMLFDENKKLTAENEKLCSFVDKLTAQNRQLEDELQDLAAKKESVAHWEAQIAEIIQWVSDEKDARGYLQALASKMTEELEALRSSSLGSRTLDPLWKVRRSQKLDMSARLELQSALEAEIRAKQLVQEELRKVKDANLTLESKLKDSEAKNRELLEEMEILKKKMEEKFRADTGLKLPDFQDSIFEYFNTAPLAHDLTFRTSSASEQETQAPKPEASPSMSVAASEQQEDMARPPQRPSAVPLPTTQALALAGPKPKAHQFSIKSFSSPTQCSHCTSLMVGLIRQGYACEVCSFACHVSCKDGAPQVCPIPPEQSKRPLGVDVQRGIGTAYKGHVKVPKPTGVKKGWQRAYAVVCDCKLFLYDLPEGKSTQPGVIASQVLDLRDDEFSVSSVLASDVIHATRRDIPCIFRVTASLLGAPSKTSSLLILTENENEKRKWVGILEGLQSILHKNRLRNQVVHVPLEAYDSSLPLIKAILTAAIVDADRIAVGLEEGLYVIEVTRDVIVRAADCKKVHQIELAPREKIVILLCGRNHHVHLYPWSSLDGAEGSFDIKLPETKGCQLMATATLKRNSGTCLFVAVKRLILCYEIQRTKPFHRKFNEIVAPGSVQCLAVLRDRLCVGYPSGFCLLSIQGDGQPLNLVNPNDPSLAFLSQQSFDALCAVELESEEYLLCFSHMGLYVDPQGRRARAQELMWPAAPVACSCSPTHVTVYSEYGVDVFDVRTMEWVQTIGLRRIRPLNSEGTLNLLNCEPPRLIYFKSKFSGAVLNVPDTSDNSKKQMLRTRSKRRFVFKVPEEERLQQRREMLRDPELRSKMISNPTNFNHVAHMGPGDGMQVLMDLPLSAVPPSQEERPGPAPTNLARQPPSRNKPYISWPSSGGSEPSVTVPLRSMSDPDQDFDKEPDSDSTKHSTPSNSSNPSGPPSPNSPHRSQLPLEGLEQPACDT

As for `CC(C)Nc1sc(C(=O)c2ccc(Cl)s2)c(N)c1C#N`, the Activity in test [1] stood at 100%; in test [2], 80%; in test [3], 100%; in test [4] it was 90%; in test [5] it was 100%; in test [6], 100%. The figures for the Activity in test [7] and in test [8] were 71% and 70%, respectively.
